The term IC50 denotes the point on the concentration scale where inhibition reaches its midpoint.

In this test the target is T1, HDAC6 human recombinant (Homo sapiens, UniProt Q9UBN7).
T1 sequence (Q9UBN7 1-1215): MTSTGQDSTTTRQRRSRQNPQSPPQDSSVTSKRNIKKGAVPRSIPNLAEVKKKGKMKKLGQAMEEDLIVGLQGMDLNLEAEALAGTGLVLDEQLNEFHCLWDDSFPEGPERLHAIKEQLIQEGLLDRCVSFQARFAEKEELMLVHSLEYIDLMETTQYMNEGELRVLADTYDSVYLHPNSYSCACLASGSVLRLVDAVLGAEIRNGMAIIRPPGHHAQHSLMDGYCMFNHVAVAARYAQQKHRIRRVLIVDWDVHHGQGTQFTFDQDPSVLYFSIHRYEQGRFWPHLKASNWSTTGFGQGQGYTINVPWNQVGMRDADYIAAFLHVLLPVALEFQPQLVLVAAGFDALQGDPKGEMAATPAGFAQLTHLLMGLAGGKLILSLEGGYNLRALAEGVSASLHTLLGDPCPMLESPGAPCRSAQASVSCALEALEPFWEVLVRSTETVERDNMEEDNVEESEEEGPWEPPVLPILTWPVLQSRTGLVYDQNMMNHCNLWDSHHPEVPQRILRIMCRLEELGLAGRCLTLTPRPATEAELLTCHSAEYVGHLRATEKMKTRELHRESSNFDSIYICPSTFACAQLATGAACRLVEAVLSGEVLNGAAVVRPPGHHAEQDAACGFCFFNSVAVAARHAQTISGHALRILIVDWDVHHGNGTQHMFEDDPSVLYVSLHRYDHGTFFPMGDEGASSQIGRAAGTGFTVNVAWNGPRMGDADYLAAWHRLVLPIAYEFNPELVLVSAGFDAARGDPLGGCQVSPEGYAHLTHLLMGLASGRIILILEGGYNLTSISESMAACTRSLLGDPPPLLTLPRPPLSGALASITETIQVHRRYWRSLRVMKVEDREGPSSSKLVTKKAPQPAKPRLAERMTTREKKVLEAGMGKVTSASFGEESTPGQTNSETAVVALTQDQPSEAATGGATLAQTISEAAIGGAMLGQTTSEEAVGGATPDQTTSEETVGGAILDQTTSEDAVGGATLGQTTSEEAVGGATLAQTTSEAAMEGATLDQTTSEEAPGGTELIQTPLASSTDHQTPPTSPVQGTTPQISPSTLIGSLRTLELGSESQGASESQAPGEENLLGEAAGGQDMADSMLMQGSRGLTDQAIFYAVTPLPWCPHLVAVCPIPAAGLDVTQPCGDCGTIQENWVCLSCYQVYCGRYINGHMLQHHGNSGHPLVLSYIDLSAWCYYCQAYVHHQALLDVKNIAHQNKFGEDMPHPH
Nature of the test: HDAC enzyme activity inhibition (in vitro), fluorimetric HDAC6 assay. Particulars: samples at 0.1, 1, 10, 100 and 1000 nM, 37° C. 60 minutes, fluorescence Ex 390, Em 460. It counts as biochemical. As for the experimental part: To identify this, HDAC1/6 enzyme selectivity and cell selectivity (HDAC1: histone acetylation/HDAC6: tubulin acetylation) were investigated accordingly.
An HDAC enzyme inhibitory ability of a test material was measured by means of HDAC1 Fluorimetric Drug Discovery Assay Kit (Enzolifesciences: BML-AK511) and HDAC6 human recombinant (Calbiochem: 382180). For an HDAC1 assay, samples were treated at a concentration of 100, 1000 and 10000 nM. For an HDAC6 assay, samples were treated at a concentration of 0.1, 1, 10, 100 and 1000 nM. After such sample treatment, a reaction was continued at 37° C. for 60 minutes, then treated with a developer, and then subjected to reaction at 37° C. for 30 minutes, after which fluorescence intensity (Ex 390, Em 460) was measured by means of FlexStation3 (Molecular device).
For the molecule `O=C(Cn1ccc(-c2nnc(C(F)F)o2)cc1=O)OCc1ccccc1` [Compound 15, benzyl 2-(4-(5-(difluoromethyl)-1,3,4-oxadiazole-2-yl)-2-oxopyridine-1(2H)-yl)acetate], the IC50 amounted to 0.074 µM.
Under `O=c1cc(-c2nnc(C(F)F)o2)ccn1CCC1OCCCO1` [Compound 9, 1-(2-(1,3-dioxane-2-yl)ethyl)-4-(5-(difluoromethyl)-1,3,4-oxadiazole-2-yl)pyridine-2(1H)-one] stands 0.247 µM; under `CC(C)=CCn1ccc(-c2nnc(C(F)(F)F)o2)cc1=O` [Compound 48, 1-(3-methylbut-2-en-1-yl)-4-(5-(trifluoromethyl)-1,3,4-oxadiazole-2-yl)pyridine-2(1H)-one], 1.67 µM.
Under `O=c1cc(-c2nnc(C(F)F)o2)ccn1Cc1ccc2ccccc2c1` [Compound 1, 4-(5-(difluoromethyl)-1,3,4-oxadiazole-2-yl)-1-(naphthalene-2-ylmethyl)pyridine-2(1H)-one] stands 0.082 µM; under `O=c1cc(-c2nnc(C(F)F)o2)ccn1Cc1ccccc1Cl` [Compound 12, 1-(2-chlorobenzyl)-4-(5-(difluoromethyl)-1,3,4-oxadiazole-2-yl)pyridine-2(1H)-one], 0.631 µM; under `COc1cc(CCn2ccc(-c3nnc(C(F)F)o3)cc2=O)cc(OC)c1` [Compound 8, 4-(5-(difluoromethyl)-1,3,4-oxadiazole-2-yl)-1-(3,5-dimethoxyphenethyl)pyridine-2(1H)-one], 0.253 µM.
Under `O=c1cc(-c2nnc(C(F)F)o2)ccn1Cc1cc(F)ccc1F` [Compound 10, 1-(2,5-difluorobenzyl)-4-(5-(difluoromethyl)-1,3,4-oxadiazole-2-yl)pyridine-2(1H)-one] stands 0.217 µM; under `O=C(N[C@@H](Cn1ccc(-c2nnc(C(F)F)o2)cc1=O)c1ccccc1)N1CCOCC1` [Compound 57, (R)—N-(2-(4-(5-(difluoromethyl)-1,3,4-oxadiazole-2-yl)-2-oxopyridine-1(2H)-yl)-1-phenylethyl)morpholine-4-carboxamide], 0.301 µM.
Take `O=c1cc(-c2nnc(C(F)F)o2)ccn1Cc1ccc([N+](=O)[O-])cc1` [Compound 26, 4-(5-(difluoromethyl)-1,3,4-oxadiazole-2-yl)-1-(4-nitrobenzyl)pyridine-2(1H)-one]: the IC50 came out at 0.272 µM.
The figure for `O=C(Cn1ccc(-c2nnc(C(F)F)o2)cc1=O)c1ccc2c(c1)OCCO2` [Compound 21] is 0.381 µM; for `CCn1ccc(-c2nnc(C(F)F)o2)cc1=O` [Compound 55, 4-(5-(difluoromethyl)-1,3,4-oxadiazole-2-yl)-1-ethylpyridine-2(1H)-one] it is 0.284 µM; for `O=c1cc(-c2nnc(C(F)F)o2)ccn1Cc1noc(C(F)(F)F)n1` [Compound 28, 4-(5-(difluoromethyl)-1,3,4-oxadiazole-2-yl)-1-((5-(trifluoromethyl)-1,2,4-oxadiazole-3-yl)methyl)pyridine-2(1H)-one] it is 0.156 µM.
Consider `O=C(Cn1ccc(-c2nnc(C(F)(F)F)o2)cc1=O)c1cccs1` [Compound 36, 1-(2-oxo-2-(thiophene-2-yl)ethyl)-4-(5-(trifluoromethyl)-1,3,4-oxadiazole-2-yl)pyridine-2(1H)-one], for which the IC50 amounted to 0.935 µM.
Under `O=C(N[C@@H](Cn1ccc(-c2nnc(C(F)F)o2)cc1=O)c1ccccc1)N1CCS(=O)(=O)CC1` [Compound 58, (R)—N-(2-(4-(5-(difluoromethyl)-1,3,4-oxadiazole-2-yl)-2-oxopyridine-1(2H)-yl)-1-phenylethyl)thiomorpholine-4-carboxamide 1,1-dioxide] stands 0.358 µM; under `O=C(Cn1ccc(-c2nnc(C(F)F)o2)cc1=O)c1coc2ccccc12` [Compound 51, 1-(2-(benzofuran-3-yl)-2-oxoethyl)-4-(5-(difluoromethyl)-1,3,4-oxadiazole-2-yl)pyridine-2(1H)-one], 0.284 µM.
The figure for `O=C(Cn1ccc(-c2nnc(C(F)(F)F)o2)cc1=O)c1ccc(Cl)cc1` [Compound 34, 1-(2-(4-chlorophenyl)-2-oxoethyl)-4-(5-(trifluoromethyl)-1,3,4-oxadiazole-2-yl)pyridine-2(1H)-one] is 2.32 µM.
On to `O=C(Cn1ccc(-c2nnc(C(F)F)o2)cc1=O)c1ccc2ccccc2c1` [Compound 7, 4-(5-(difluoromethyl)-1,3,4-oxadiazole-2-yl)-1-(2-(naphthalene-2-yl)-2-oxoethyl)pyridine-2(1H)-one], for which the IC50 amounted to 0.364 µM.
The figure for `COc1cccc(C(=O)Cn2ccc(-c3nnc(C(F)F)o3)cc2=O)c1` [Compound 22, 4-(5-(difluoromethyl)-1,3,4-oxadiazole-2-yl)-1-(2-(3-methoxyphenyl)-2-oxoethyl)pyridine-2(1H)-one] is 0.427 µM.
With `O=C(Cn1ccc(-c2nnc(C(F)(F)F)o2)cc1=O)c1ccccc1` [Compound 42, 1-(2-oxo-2-phenylethyl)-4-(5-(trifluoromethyl)-1,3,4-oxadiazole-2-yl)pyridine-2(1H)-one], the IC50 was 1.91 µM.
Consider `O=C(Cn1ccc(-c2nnc(C(F)(F)F)o2)cc1=O)c1ccc(Cl)s1` [Compound 37, 1-(2-(5-chlorothiophene-2-yl)-2-oxoethyl)-4-(5-(trifluoromethyl)-1,3,4-oxadiazole-2-yl)pyridine-2(1H)-one], for which the IC50 was 1.3 µM.
The figure for `O=C(Cn1ccc(-c2nnc(C(F)F)o2)cc1=O)c1ccc([N+](=O)[O-])cc1` [Compound 25, 4-(5-(difluoromethyl)-1,3,4-oxadiazole-2-yl)-1-(2-(4-nitrophenyl)-2-oxoethyl)pyridine-2(1H)-one] is 0.239 µM; for `O=c1cc(-c2nnc(C(F)F)o2)ccn1Cc1cc(F)c(F)cc1F` [Compound 13, 4-(5-(difluoromethyl)-1,3,4-oxadiazole-2-yl)-1-(2,4,5-trifluorobenzyl)pyridine-2(1H)-one] it is 0.306 µM.
Under `COc1ccc(C(=O)Cn2ccc(-c3nnc(C(F)F)o3)cc2=O)c(OC)c1` [Compound 20, 4-(5-(difluoromethyl)-1,3,4-oxadiazole-2-yl)-1-(2-(2,4-dimethoxyphenyl)-2-oxoethyl) pyridine-2(1H)-one] stands 0.257 µM.
The figure for `O=C(Cn1ccc(-c2nnc(C(F)(F)F)o2)cc1=O)c1coc2ccccc12` [Compound 38, 1-(2-(benzofuran-3-yl)-2-oxoethyl)-4-(5-(trifluoromethyl)-1,3,4-oxadiazole-2-yl)pyridine-2(1H)-one] is 2.39 µM; for `O=C(C(Cn1ccc(-c2nnc(C(F)F)o2)cc1=O)c1ccccc1)N1CCOCC1` (centres unmarked) [Compound 45, 4-(5-(difluoromethyl)-1,3,4-oxadiazole-2-yl)-1-(3-morpholino-3-oxo-2-phenylpropyl)pyridine-2(1H)-one] it is 0.29 µM; for `C=C(C)Cn1ccc(-c2nnc(C(F)F)o2)cc1=O` [Compound 52, 4-(5-(difluoromethyl)-1,3,4-oxadiazole-2-yl)-1-(2-methylallyl)pyridine-2(1H)-one] it is 0.377 µM.
For the molecule `O=C(Cn1ccc(-c2nnc(C(F)(F)F)o2)cc1=O)c1ccc2ccccc2c1` [Compound 41, 1-(2-(naphthalene-2-yl)-2-oxoethyl)-4-(5-(trifluoromethyl)-1,3,4-oxadiazole-2-yl)pyridine-2(1H)-one], the IC50 was determined as 5.18 µM.
Under `O=C1c2ccccc2C(=O)N1CCCCn1ccc(-c2nnc(C(F)F)o2)cc1=O` [Compound 29, 2-(4-(4-(5-(difluoromethyl)-1,3,4-oxadiazole-2-yl)-2-oxopyridine-1(2H)-yl)butyl)isoindoline-1,3-dione] stands 0.261 µM; under `O=c1cc(-c2nnc(C(F)F)o2)ccn1CCn1cccn1` [Compound 6, 1-(2-(1H-pyrazole-1-yl)ethyl)-4-(5-(difluoromethyl)-1,3,4-oxadiazole-2-yl)pyridine-2(1H)-one], 0.456 µM.

The values are drawn from US11958844B2, “1,3,4-oxadiazole derivative compounds as histone deacetylase 6 inhibitor, and pharmaceutical composition comprising the same” (Chong Kun Dang Pharmaceutical Corp., priority 2018, dated 2024).
